Laboratory results from patent publication US20240158394A1, “NEK7 INHIBITORS” (Halia Therapeutics, Inc., priority 2022, published 2024).

Key:
[1] = molecular target: full-length recombinant human NEK7 (Homo sapiens (Human), UniProt Q8TDX7); experiment: NEK7 Enzymatic Assay; assay type: biochemical; conditions: casein substrate, [33P]-ATP, 2 hours at room temperature
Outline: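 GST-tagged full-length human NEK7 (Sf9-expressed) with 1 mg/mL casein in HEPES pH 7.5/MgCl2 buffer, 1% DMSO; compounds 10 μM–0.5 nM preincubated 20 min at RT. Reaction started with [^33P]-ATP, 2 h at RT, P81 filter radioactivity read; IC50 from % activity remaining versus vehicle.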

IL-1β release = experiment: IL-1β Release Assay; assay type: cell-based; conditions: Homo sapiens; PMA-treated THP-1 cells, 250 ng/mL LPS then 20 μM nigericin; cleaved IL-1β in media
Protocol: Approximately 1.5 million THP-1 cells were plated in each well of a 6-well TC plate and incubated with 40 nM PMA in RPMI (10% FBS, 1% Penstrep) for 24 hours. The media was then removed, and cells were rested in RPMI (10% FBS, 1% Penstrep) for 24 hours after which time the media was removed and cells were pre-treated for 2 hours with various concentrations of compounds of interest (typically serial 3-fold dilution in RPMI+5% FBS, concentrations ranging from 1 μM to 0.5 nM) in RPMI (5% FBS). The media was again removed, and cells were incubated with 250 ng/mL LPS and compounds of interest (concentrations as above) in RMPI (5% FBS) for 2 hours. The media was removed for a last time and cells were incubated with 20 μM nigericin and compounds of interest (concentrations as above) in Opti-MEM for 30 minutes. Cell media was then collected and the amount of cleaved IL-1β was determined using a JESS instrument (Protein Simple) and standard protocols. Cleaved Il-1β antibody was obtained from Cell Signaling (catalogue #83186S) and was used at 1:20 dilution in antibody diluent 2. Protein Simple 1× anti-Rabbit HRP secondary antibody was used along with Protein Simple luminol and peroxide for chemiluminescent detection. Primary antibody incubation time was increased from 30 minutes to 60 minutes.

Chain of full-length recombinant human NEK7 (Q8TDX7 whole entry): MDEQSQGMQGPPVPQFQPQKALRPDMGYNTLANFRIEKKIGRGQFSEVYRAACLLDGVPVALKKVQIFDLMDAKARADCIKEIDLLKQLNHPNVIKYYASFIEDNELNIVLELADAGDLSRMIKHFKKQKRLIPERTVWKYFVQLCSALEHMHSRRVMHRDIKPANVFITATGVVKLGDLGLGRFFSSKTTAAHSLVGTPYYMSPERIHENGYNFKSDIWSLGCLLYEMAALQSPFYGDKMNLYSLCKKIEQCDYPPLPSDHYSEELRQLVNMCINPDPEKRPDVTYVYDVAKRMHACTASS

IC50 [1] [nM] | IC50 (IL-1β release) [nM] | SMILES
< 200 | > 1000 | Nc1ncnc2c1c(-c1ccc(NC(=O)Nc3cc(C4(C(F)(F)F)CC4)on3)c3nccn13)cn2C1CC1 [Example I-32, 1-(5-(4-amino-7-cyclopropyl-7H-pyrrolo[2,3-d]pyrimidin-5-yl)imidazo[1,2-a]pyridin-8-yl)-3-(5-(1-(trifluoromethyl)-cyclopropyl)isoxazol-3-yl)-urea]
> 2000 | > 1000 | Nc1ncnc2c1c(-c1ccc(NC(=O)Nc3cc(C4(C(F)(F)F)CC4)on3)c3ncccc13)cn2C1CC1 [Example I-4, 1-(5-(4-amino-7-cyclopropyl-7H-pyrrolo[2,3-d]pyrimidin-5-yl)quinolin-8-yl)-3-(5-(1-(trifluoromethyl)cyclopropyl)-isoxazol-3-yl)urea]
500 to 2000 | < 100 | CC(C)(C)c1cc(NC(=O)Nc2ccc(-c3cn(C4CC4)c4ncnc(N)c34)c3ccoc23)n(-c2ccccc2)n1 [Example I-62, 1-(4-(4-amino-7-cyclopropyl-7H-pyrrolo[2,3-d]pyrimidin-5-yl)benzofuran-7-yl)-3-(3-(tert-butyl)-1-phenyl-1H-pyrazol-5-yl)urea]
< 200 | < 100 | CN1CCN(Cc2ccc(NC(=O)Nc3ccc(-c4cn(C5CC5)c5ncnc(N)c45)c4c3OCC4)cc2C(F)(F)F)CC1 [Example I-53, 1-(4-(4-amino-7-cyclopropyl-7H-pyrrolo[2,3-d]pyrimidin-5-yl)-2,3-dihydrobenzofuran-7-yl)-3-(4-((4-methylpiperazin-1-yl)methyl)-3-(trifluorometh-yl)phenyl)urea]
< 200 | < 100 | CC(C)(C)c1cc(NC(=O)Nc2ccc(-c3cn(C4CC4)c4ncnc(N)c34)n3ccnc23)n(-c2ccccc2)n1 [Example I-11, 1-(5-(4-amino-7-cyclopropyl-7H-pyrrolo[2,3-d]pyrimidin-5-yl)imidazo[1,2-a]pyridin-8-yl)-3-(3-(tert-butyl)-1-phenyl-1H-pyrazol-5-yl)urea]
< 200 | 100 to 250 | Nc1ncnc2c1c(-c1ccc(NC(=O)Nc3cc(C4(C(F)(F)F)CC4)on3)c3oncc13)cn2C1CC1 [Example I-68, 1-(4-(4-amino-7-cyclopropyl-7H-pyrrolo[2,3-d]pyrimidin-5-yl)benzo[d]isoxazol-7-yl)-3-(5-(1-(trifluoromethyl)cyclo-propyl)isoxazol-3-yl)urea]
